# Values quoted from earlier work, collected in patent US20070293534A1, “Process for the preparation of mivacurium chloride” (FARMABIOS S.P.A., priority 2006, published 2007).
# Conditions: for neuromuscolar blocking potencies compared with each other: trans-trans versus cis-trans diastereoisomer
structure (smiles),measurement,setting,value
"COc1cc2c(cc1OC)[C@@H](Cc1cc(OC)c(OC)c(OC)c1)[N@@+](C)(CCCOC(=O)CC/C=C/CCC(=O)OCCC[N@@+]1(C)CCc3cc(OC)c(OC)cc3[C@H]1Cc1cc(OC)c(OC)c(OC)c1)CC2.[Cl-].[Cl-] (single isomer, unassigned) [cis-cis diastereoisomer]",neuromuscolar blocking potency relative to the other two diastereoisomers,"fraction of the potency of the trans-trans and cis-trans diastereoisomers, estimated",approximately one tenth
COc1cc2c(cc1OC)[C@@H](Cc1cc(OC)c(OC)c(OC)c1)[N@+](C)(CCCOC(=O)CC/C=C/CCC(=O)OCCC[N@+]1(C)CCc3cc(OC)c(OC)cc3[C@H]1Cc1cc(OC)c(OC)c(OC)c1)CC2.[Cl-].[Cl-] [trans-trans],neuromuscolar blocking potencies compared with each other,,not significantly different from each other
COc1cc2c(cc1OC)[C@@H](Cc1cc(OC)c(OC)c(OC)c1)[N@@+](C)(CCCOC(=O)CC/C=C/CCC(=O)OCCC[N@+]1(C)CCc3cc(OC)c(OC)cc3[C@H]1Cc1cc(OC)c(OC)c(OC)c1)CC2.[Cl-].[Cl-] [cis-trans],neuromuscolar blocking potencies compared with each other,,not significantly different from each other
